Results: patent publication US20170081338A1, “SUBSTITUTED HETEROARYL COMPOUNDS AND METHODS OF USE” (Sunshine Lake Pharma Co., Ltd., priority 2015, published 2017)
pIC50: −log10 of the molar value.

Experiments:
[1] = target: T1, Aurora-A (h) (Homo sapiens, UniProt O14965); test: Aurora-A (h) kinase assay; format: biochemical
T1 construct: purchased Millipore UK Ltd (contract assay service)
T1 sequence (O14965 1-403): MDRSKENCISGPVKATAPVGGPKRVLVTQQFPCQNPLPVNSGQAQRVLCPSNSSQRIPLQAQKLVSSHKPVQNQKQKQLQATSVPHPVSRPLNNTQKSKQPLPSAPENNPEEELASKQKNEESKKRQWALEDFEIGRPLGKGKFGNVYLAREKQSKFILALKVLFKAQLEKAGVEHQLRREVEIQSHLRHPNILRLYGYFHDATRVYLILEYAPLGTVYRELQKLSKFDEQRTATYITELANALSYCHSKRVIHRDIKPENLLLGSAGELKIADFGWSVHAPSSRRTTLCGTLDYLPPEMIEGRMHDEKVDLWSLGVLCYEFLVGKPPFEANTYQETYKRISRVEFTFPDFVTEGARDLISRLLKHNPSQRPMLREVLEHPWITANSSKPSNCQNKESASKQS
Method: The above assay procedure can be used to determine the IC50 for inhibition and/or the inhibition constant, Ki. The IC50 is defined as the concentration of compound required to reduce the enzyme activity by 50% under the condition of the assay. The IC50 value is estimated by preparing a 10 point curve using a 1/2 log dilution series (for example, a typical curve may be prepared using the following compound concentrations: 3 μM, 1 μM, 0.3 μM, 0.1 μM, 0.03 μM, 0.01 μM, 0.003 μM, 0.001 μM, 0.0003 μM and 0 μM).
Aurora-A (h) is incubated with 8 mM MOPS pH 7.0, 0.2 mM EDTA, 200 μM LRRASLG (Kemptide), 10 mM MgAcetate and [γ-^33P-ATP] (specific activity approx. 500 cpm/pmol, concentration as required). The reaction is initiated by the addition of the MgATP mix. After incubation for 40 minutes at room temperature, the reaction is stopped by the addition of 3% phosphoric acid solution. 10 μL of the reaction is then spotted onto a P30 filtermat and washed three times for 5 minutes in 75 mM phosphoric acid and once in methanol prior to drying and scintillation counting.
The kinase assays described herein were performed at Millipore UK Ltd, Dundee Technology Park, Dundee DD2 1SW, UK.

[2] = Pharmacokinetics after intravenous and oral administration in rats; format: in vivo; settings: for Clearance (CL) after iv dosing / AUC(0-t) / half-life / Vd: dose 1 mg/kg, iv dosing; for F: oral bioavailability; for AUC(0-t) / half-life / Vd: rat, plasma; for Vd: read-out: Vss
Method: The LC/MS/MS system used in the analysis consists of an Agilent 1200 Series vacuum degasser, binary pump, well-plate autosampler, thermostatted column compartment, the Agilent G6430 Triple Quadrupole Mass Spectrometer with an electrosprayionization (ESI) source. Quantitative analysis was carried out using MRM mode. The parameters for MRM transitions are in the Table A.
An Agilent XDB-C18, 2.1×30 mm, 3.5 μM column was used for the analysis. 5 μL of the samples were injected. Analysis condition: The mobile phase was 0.1% formic acid in water (A) and 0.1% formic acid in methanol (B). The flow rate was 0.4 mL/min. And the gradient of Mobile phase was in the Table B.
Alternatively, an Agilent 6330 series LC/MS/MS spectrometer equipped with G1312A binary pumps, a G1367A autosampler and a G1314C UV detector were used in the analysis. An ESI source was used on the LC/MS/MS spectrometer. The analysis was done in positive ion mode as appropriate and the MRM transition for each analyte was optimized using standard solution. A Capcell MP-C18 100×4.6 mm I.D., […] column (Phenomenex, Torrance, Calif., USA) was used during the analysis. The mobile phase was 5 mM ammonia acetate, 0.1% MeOH in water (A): 5 mM ammonia acetate, 0.1% MeOH in acetonitrile (B) (70/30, v/v). The flow rate was 0.6 mL/min. Column was maintained at ambient temperature. 20 μL of the samples were injected.
The compounds disclosed herein are assessed in pharmacokinetic studies in mice, rats, dogs or monkeys. The compounds are administered as a water solution, 2% HPMC+1% TWEEN®80 in water solution, 5% DMSO+5% solutol in saline, 4% MC suspension or capsule. For the intravenous administration, the animals are generally given at 0.5, 1 or 2 mg/kg dose. For the oral (p.o.) dosing, mice and rats are generally given 0.5, 1, 5 or 10 mg/kg dose, and dogs and monkeys are generally given 10 mg/kg dose. The blood samples (0.3 mL) are drawn at 0.25, 0.5, 1.0, 2.0, 3.0, 4.0, 6.0, 8.0, 12 and 24 h time points or 0.083, 0.25, 0.5, 1.0, 2.0, 4.0, 6.0, 8.0 and 24 h time points and centrifuged at 3,000 or 4000 rpm for 2 to 10 min. The plasma solutions are collected, and stored at −20° C. or −70° C. until analyzed by LC/MS/MS as described above.

[3] = Compound stability in human liver microsomes; format: in vitro ADME; settings: pH 7.4; for half-life at 5 μM: human liver microsomes 0.5 mg protein/mL, compound 5 μM, NADPH, 37° C., read-out: Human T1/2; for CLint scaled at 5 μM: human liver microsomes, in vivo CLint extrapolated
Method: (§1) Human or rat liver microsomes incubations were conducted in duplicate in polypropylene tubes. The typical incubation mixtures consisted of human or rat liver microsomes (0.5 mg protein/mL), compounds of interest (5 μM) and NADPH (1.0 mM) in a total volume of 200 μL potassium phosphate buffer (PBS, 100 mM, pH 7.4). Compounds were dissolved in DMSO and diluted with PBS such that the final concentration of DMSO was 0.05%. The enzymatic reactions were commenced with the addition of protein after a 3-min preincubation and incubated in a water bath open to the air at 37° C. Reactions were terminated at various time points (0, 5, 10, 15, 30, 60 min) by adding equal volume of ice-cold acetonitrile. The samples were stored at −80° C. until LC/MS/MS assays.
(§2) The concentrations of compounds in the incubation mixtures of human or rat liver microsomes were determined by a LC/MS/MS method. The ranges of the linearity in the concentration range were determined for each tested compounds.
(§3) A parallel incubation was performed using denatured microsomes as the negative control, and reactions were terminated at various time points (0, 15, 60 min) after incubation at 37° C.
(§4) Dextromethorphan (70 μM) was selected as the positive control, and reactions were terminated at various time points (0, 5, 10, 15, 30, 60 min) after incubation at 37° C. Both positive and negative control samples were included in each assay to ensure the integrity of the microsomal incubation system.
(§5) The concentrations of compounds in human or rat liver microsome incubations were plotted as a percentage of the relevant zero time point control for each reaction. The in vivo CLint were extrapolated (ref.: Naritomi, Y.; Terashita, S.; Kimura, S.; Suzuki, A.; Kagayama, A.; and Sugiyama, Y.; Prediction of human hepatic clearance from in vivo animal experiments and in vitro metabolic studies with liver microsomes from animals and humans. Drug Metab. Dispos., 2001, 29: 1316-1324).

[4] = Compound stability in rat liver microsomes; format: in vitro ADME; settings: pH 7.4; for half-life at 5 μM: rat liver microsomes 0.5 mg protein/mL, compound 5 μM, NADPH, 37° C., read-out: Rat T1/2; for CLint scaled at 5 μM: rat liver microsomes, in vivo CLint extrapolated
Method: as §1, §2, §3, §4, §5

pIC50 [1]	Clearance (CL) after iv dosing [2] [mL/min/kg]	F [2] [%]	AUC(0-t) [2] [ng·h/mL]	half-life [2] [min]	Vd [2] [L/kg]	half-life at 5 μM [3] [min]	CLint scaled at 5 μM [3] [mL/min/kg]	half-life at 5 μM [4] [min]	CLint scaled at 5 μM [4] [mL/min/kg]	SMILES
6.32	–	–	–	–	–	–	–	–	–	CC(C)CS(=O)(=O)N[C@@H]1COC2C1OC[C@H]2Nc1nc(Nc2cnn(C)c2)ncc1Cl (stereo partly drawn) [Ex. 32, N-((3R,6R)-6-((5-chloro-2-((1-methyl-1H-pyrazol-4-yl)amino)pyrimidin-4-yl)amino)hexahydrofuro[3,2-b]furan-3-yl)-2-methylpropane-1-sulfonamide]
7.29	–	–	–	–	–	–	–	–	–	Cn1cc(Nc2ncc(Cl)c(N[C@@H]3COC4C3OC[C@@H]4NS(=O)(=O)CC(F)F)n2)cn1 (stereo partly drawn) [Ex. 36, N-((3S,6R)-6-((5-chloro-2-((1-methyl-1H-pyrazol-4-yl)amino)pyrimidin-4-yl)amino)hexahydrofuro[3,2-b]furan-3-yl)-2,2-difluoroethanesulfonamide]
–	29.3	127.3	567	42	1.4	25.6	68	78.6	31.6	Cn1cc(Nc2ncc(Cl)c(N[C@@H]3COC4C3OC[C@@H]4NS(=O)(=O)C(C)(C)C)n2)cn1 (stereo partly drawn) [Ex. 24, N-((3S,6R)-6-((5-chloro-2-((1-methyl-1H-pyrazol-4-yl)amino)pyrimidin-4-yl)amino)hexahydrofuro[3,2-b]furan-3-yl)-2-methylpropane-2-sulfonamide]
–	57.3	37.0	290	49.2	1.64	102	17	78.7	31.5	Cn1cc(Nc2ncc(Cl)c(N[C@@H]3COC4C3OC[C@@H]4NS(=O)(=O)CC(C)(C)O)n2)cn1 (stereo partly drawn) [Ex. 41, N-((3S,6R)-6-((5-chloro-2-((1-methyl-1H-pyrazol-4-yl)amino)pyrimidin-4-yl)amino)hexahydrofuro[3,2-b]furan-3-yl)-2-hydroxy-2-methylpropane-1-sulfonamide]
7.80	–	–	–	–	–	–	–	–	–	Cn1cc(Nc2ncc(Cl)c(N[C@@H]3COC4C3OC[C@@H]4NS(=O)(=O)NC3CCOC3)n2)cn1 (stereo partly drawn) [Ex. 29, 5-chloro-N-(1-methyl-1H-pyrazol-4-yl)-4-(((3R,6S)-6-((N-(tetrahydrofuran-3-yl)sulfamoyl)amino)hexahydrofuro[3,2-b]furan-3-yl)amino)pyrimidin-2-amine]
–	7	67.5	2440	27	0.26	60	29	26.6	93.4	Cn1cc(Nc2ncc(Cl)c(N[C@@H]3COC4C3OC[C@@H]4Nc3ccc(C#N)cn3)n2)cn1 (stereo partly drawn) [Ex. 23, 6-(((3S,6R)-6-((5-chloro-2-((1-methyl-1H-pyrazol-4-yl)amino)pyrimidin-4-yl)amino)hexahydrofuro[3,2-b]furan-3-yl)amino)nicotinonitrile]
–	34.2	69.5	491	32.4	0.86	26.6	65.5	34.9	71.1	CC(CF)CS(=O)(=O)N[C@H]1COC2C1OC[C@H]2Nc1nc(Nc2cnn(C)c2)ncc1Cl (stereo partly drawn) [Ex. 37, N-((3S,6R)-6-((5-chloro-2-((1-methyl-1H-pyrazol-4-yl)amino)pyrimidin-4-yl)amino)hexahydrofuro[3,2-b]furan-3-yl)-3-fluoro-2-methylpropane-1-sulfonamide]
–	38	90.1	452	37.2	1.87	57.3	30.4	68	36.5	Cn1cc(Nc2ncc(Cl)c(N[C@@H]3COC4C3OC[C@@H]4NS(=O)(=O)c3ccc(F)cc3)n2)cn1 (stereo partly drawn) [Ex. 8, N-((3S,6R)-6-((5-chloro-2-((1-methyl-1H-pyrazol-4-yl)amino)pyrimidin-4-yl)amino)hexahydrofuro[3,2-b]furan-3-yl)-4-fluorobenzenesulfonamide]
6.24	–	–	–	–	–	–	–	–	–	CC(C)CS(=O)(=O)N[C@H]1COC2C1OC[C@@H]2Nc1nc(Nc2cnn(C)c2)ncc1Cl (stereo partly drawn) [Ex. 28, N-((3S,6S)-6-((5-chloro-2-((1-methyl-1H-pyrazol-4-yl)amino)pyrimidin-4-yl)amino)hexahydrofuro[3,2-b]furan-3-yl)-2-methylpropane-1-sulfonamide]
5.93	–	–	–	–	–	–	–	–	–	Cn1cc(Nc2ncc(Cl)c(N[C@H]3COC4C3OC[C@H]4NS(=O)(=O)CC(C)(C)C)n2)cn1 (stereo partly drawn) [Ex. 7, N-((3R,6S)-6-((5-chloro-2-((1-methyl-1H-pyrazol-4-yl)amino)pyrimidin-4-yl)amino)hexahydrofuro[3,2-b]furan-3-yl)-2,2-dimethylpropane-1-sulfonamide]
8.00	44.8	28.2	374	52.8	2.37	–	–	–	–	Cn1cc(Nc2ncc(Cl)c(N[C@@H]3COC4C3OC[C@@H]4NS(=O)(=O)Cc3ccccc3)n2)cn1 (stereo partly drawn) [Ex. 19, N-((3S,6R)-6-((5-chloro-2-((1-methyl-1H-pyrazol-4-yl)amino)pyrimidin-4-yl)amino)hexahydrofuro[3,2-b]furan-3-yl)-1-phenylmethanesulfonamide]
